# Data published in PubChem BioAssay (NCI).
#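 Cells were grown in 96-well plates and exposed to each compound for 48 hours at five concentrations; endpoints were interpolated linearly between bracketing concentrations, or set to the highest concentration if not reached. GI50: concentration for 50% inhibition of growth. The concentration for full growth arrest is given as TGI.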 Where a SMILES comes first, the peptide text is derived from it. The star is where a group is joined. Trt = c1ccc(C(c2ccccc2)(c2ccccc2)*)cc1; Cbz = O=C(OCc1ccccc1)*
# Tests used:
# Assay in all cases: growth of human tumour cells (NCI), 48 h
# HS 578T breast = system: HS 578T breast
# M14 melanoma = system: M14 melanoma
# MALME-3M melanoma = system: MALME-3M melanoma
# NCI-H226 lung = system: NCI-H226 lung
# OVCAR-4 ovarian = system: OVCAR-4 ovarian
# SF-268 CNS = system: SF-268 CNS
# SNB-75 CNS = system: SNB-75 CNS
# T-47D breast = system: T-47D breast
# U251 CNS = system: U251 CNS
# UACC-257 melanoma = system: UACC-257 melanoma
Molecule,TGI (HS 578T breast) [µM],TGI (M14 melanoma) [µM],TGI (MALME-3M melanoma) [µM],TGI (NCI-H226 lung) [µM],TGI (OVCAR-4 ovarian) [µM],TGI (SF-268 CNS) [µM],TGI (SNB-75 CNS) [µM],TGI (T-47D breast) [µM],TGI (U251 CNS) [µM],TGI (UACC-257 melanoma) [µM],GI50 (HS 578T breast) [µM],GI50 (M14 melanoma) [µM],GI50 (MALME-3M melanoma) [µM],GI50 (NCI-H226 lung) [µM],GI50 (OVCAR-4 ovarian) [µM],GI50 (SF-268 CNS) [µM],GI50 (SNB-75 CNS) [µM],GI50 (T-47D breast) [µM],GI50 (U251 CNS) [µM],GI50 (UACC-257 melanoma) [µM]
CC(N1CCOCC1)C(O)(c1ccccc1)c1ccccn1 (stereo not given),> 100,> 100,> 100,> 100,> 100,> 100,> 100,> 100,> 100,> 100,,,,,,,,,,
O=C(CCCCCCCCC(=O)N/N=C\c1cc(Cl)ccc1O)N/N=C\c1cc(Cl)ccc1O,> 100,8.69,> 100,> 36.2,> 100,> 100,> 65.9,> 100,25.9,,16.4,0.221,0.462,0.5,0.315,0.223,15.6,1.48,0.192,0.306
O=C(/C=C/c1ccco1)c1ccc(Nc2nc(Nc3ccc(F)cc3)nc(Nc3ccc(F)cc3)n2)cc1,65,30.5,> 100,> 100,36.2,30.8,91.7,59.8,42.2,> 100,22.8,12.8,43.7,53.3,8.99,7.49,30.7,11.4,21.6,> 100
Cc1c(Cl)cccc1NC(=O)c1sc2nc3c(cc2c1N)CCCC3,> 100,> 100,> 100,> 100,> 100,> 100,> 66.1,> 100,> 100,> 100,1.05,0.39,0.571,> 100,0.827,0.786,0.282,0.402,0.504,0.688
O=S(=O)(O)SCCNCCCCCC1CCCCC1,36.2,18.4,36.2,30.6,32.3,23.5,16.3,35.7,11.7,19.5,,,,,,,,,,
COC(=O)C(CSC(c1ccccc1)(c1ccccc1)c1ccccc1)NC(=O)C(CC(N)=O)NC(=O)OCc1ccccc1 (stereo not drawn) (Cbz-Asn-Cys(Trt)-OMe; configuration not given here),26.5,3.69,12.1,22,84.8,13.2,24.6,8.33,18.5,21.7,4.55,1.68,2.21,5.43,7.64,3.08,5.43,2.13,5.87,8.92
O=C(O)CCc1nc(-c2ccccc2-n2cccc2)no1,> 100,> 100,> 100,> 100,> 100,> 100,> 100,> 100,> 100,> 100,,,,,,,,,,
NS(=O)(=O)c1ccc(NC(=O)c2cccc(NC3=C(Cl)C(=O)N(Cc4ccccc4)C3=O)c2)cc1,36.7,38.7,,46.2,> 100,32.4,45.3,> 100,19.6,29.4,7.92,15.8,,8.33,35.7,11.7,19.4,33.7,5.18,14.7
Nc1nc(N)c2c(n1)NC(c1sc(Cl)nc1Cl)CC(c1ccc3c(c1)OCO3)=N2 (stereo not given),31.1,13.7,29.1,55.7,,30.2,7.55,64.1,,41.1,2.35,2.01,14.3,17.7,,9.84,1.39,5.36,,14.6
Cc1ccc(-c2n[nH]c(=O)c3noc(-c4ccc(C)cc4)c23)cc1,15.9,> 100,23.4,> 100,43.6,27.7,,> 100,18.8,> 100,1.31,0.422,1.09,6.88,10.1,2.21,,2.41,0.814,5.87
Oc1ccc(Cl)cc1/C=N\NC(=S)N/N=C/c1cc(Cl)ccc1O,> 100,,52.7,14.1,50.3,> 100,> 100,73.4,> 100,7.49,8.37,,2.14,2.34,2.25,1.72,6.35,2.73,1.08,2.13
C/C(=N/O)c1ccc(Nc2cc(-n3ccnc3)c3ccccc3n2)cc1,> 100,> 100,44.5,89,,> 100,73.5,> 100,> 100,9.35,12.9,5.75,11.4,30,,> 100,7.04,9.96,27.3,3.77
H-QIYKKYRTWYRKAWKVLGKV-NH2,8.51,14.1,,58.7,50.5,30.5,22.5,5.2,> 100,51.6,2.57,3.06,,12.4,9.03,3.99,6.06,2.06,12,13.8
